ChEMBL document CHEMBL1201862, “PubChem BioAssay data set” (2004)
Calls of active or inactive are those of the source.

Key:
[1] = Trypanosoma cruzi growth suppression in host cells – NIH3T3 host cells, beta-gal luminescence, confirmation (AID 2044); assay type: functional, cell-based;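 note: intracellular parasites grown in NIH/3T3 mouse fibroblasts as host cells; luminescent beta-galactosidase reporter signal from transgenic T. cruzi replicating inside host cells; inhibitors lower the luminescence signal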
[2] = NIH3T3 cell viability loss – ATP luminescence, mouse fibroblasts, counter-screen, dose response (AID 2010); assay type: functional, cell-based;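 note: cells exposed to compound for about 90 hours before reading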
[3] = Luminescence Cell-Based Dose Retest to Confirm Inhibitors of Cancer Stem Cells. [Related pubchem assays (depositor defined):AID2717, AID2721]; assay type: functional; details: Homo sapiens
[4] = biological target: T1, Ubiquitin-conjugating enzyme E2 N (Homo sapiens, UniProt P61088); assay type: functional;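 note: Dose-response confirmation in a TR-FRET assay detecting UBC13-driven polyubiquitin chain formation, inhibition measured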
T1 sequence (P61088 whole entry): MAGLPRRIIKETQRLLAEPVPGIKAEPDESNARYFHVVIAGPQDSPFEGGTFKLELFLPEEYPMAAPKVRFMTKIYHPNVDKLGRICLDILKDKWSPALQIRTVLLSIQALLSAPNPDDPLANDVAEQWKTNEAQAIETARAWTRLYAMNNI

INS1 = test: INS-1E survival protection against cytokine death – cell-based, luminescence, retest, dose response (AID 449756); assay type: functional; details: Rattus norvegicus;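 note: cell death triggered by IL-1 beta plus TNF-alpha plus IFN-gamma mixture; protective hits raise ATP signal compared with cytokine alone wells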
[5] = biological target: Arf-GAP with SH3 domain, ANK repeat and PH domain-containing protein 1 (Homo sapiens, UniProt Q9ULH1); assay type: functional;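 note: biochemical fluorescence polarization dose–response screen measuring inhibition of ASAP1; ASAP1 GAP domain stimulating GTP hydrolysis by truncated human ARF1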
Sequence of Arf-GAP with SH3 domain, ANK repeat and PH domain-containing protein 1 (Q9ULH1 whole entry, the tested form may be a part): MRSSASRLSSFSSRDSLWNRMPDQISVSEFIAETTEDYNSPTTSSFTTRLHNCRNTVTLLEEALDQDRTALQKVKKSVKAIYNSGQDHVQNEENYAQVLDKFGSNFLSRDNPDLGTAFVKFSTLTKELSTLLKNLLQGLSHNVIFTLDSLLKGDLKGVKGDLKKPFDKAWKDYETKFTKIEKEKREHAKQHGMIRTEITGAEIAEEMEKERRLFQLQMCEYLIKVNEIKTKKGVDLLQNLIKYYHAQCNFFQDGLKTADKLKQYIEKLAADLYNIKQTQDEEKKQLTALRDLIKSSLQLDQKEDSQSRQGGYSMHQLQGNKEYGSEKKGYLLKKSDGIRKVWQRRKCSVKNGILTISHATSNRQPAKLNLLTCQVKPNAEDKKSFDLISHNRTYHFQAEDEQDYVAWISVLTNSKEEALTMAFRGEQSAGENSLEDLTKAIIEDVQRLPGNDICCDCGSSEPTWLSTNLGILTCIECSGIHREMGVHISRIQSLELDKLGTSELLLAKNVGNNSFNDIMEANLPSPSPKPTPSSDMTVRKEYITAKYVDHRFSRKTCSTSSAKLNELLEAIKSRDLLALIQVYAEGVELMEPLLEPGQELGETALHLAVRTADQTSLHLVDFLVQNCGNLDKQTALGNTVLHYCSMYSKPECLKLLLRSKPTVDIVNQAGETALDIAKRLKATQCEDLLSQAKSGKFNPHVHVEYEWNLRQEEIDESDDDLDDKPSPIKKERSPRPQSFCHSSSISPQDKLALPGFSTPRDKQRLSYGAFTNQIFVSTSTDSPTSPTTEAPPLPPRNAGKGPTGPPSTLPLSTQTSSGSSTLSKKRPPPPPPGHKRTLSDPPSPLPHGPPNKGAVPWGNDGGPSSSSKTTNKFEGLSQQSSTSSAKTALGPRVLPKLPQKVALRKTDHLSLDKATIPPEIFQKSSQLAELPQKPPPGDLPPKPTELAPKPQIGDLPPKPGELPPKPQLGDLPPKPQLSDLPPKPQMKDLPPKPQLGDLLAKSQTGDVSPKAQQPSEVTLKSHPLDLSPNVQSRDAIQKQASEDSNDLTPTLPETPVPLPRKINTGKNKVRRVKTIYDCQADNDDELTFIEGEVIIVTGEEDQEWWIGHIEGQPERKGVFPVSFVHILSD

Paired box protein Pax-8 = Paired box protein Pax-8 (Homo sapiens, UniProt Q06710); test: PAX8 transcriptional activity inhibition in RMG-I – RMG-I cells, luciferase, cherry-pick, dose response (AID 687027); assay type: functional, cell-based;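 note: luciferase reporter driven by Pax8 target thyroperoxidase promoter measured by SteadyGlo luminescence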
Sequence of Paired box protein Pax-8 (Q06710 whole entry): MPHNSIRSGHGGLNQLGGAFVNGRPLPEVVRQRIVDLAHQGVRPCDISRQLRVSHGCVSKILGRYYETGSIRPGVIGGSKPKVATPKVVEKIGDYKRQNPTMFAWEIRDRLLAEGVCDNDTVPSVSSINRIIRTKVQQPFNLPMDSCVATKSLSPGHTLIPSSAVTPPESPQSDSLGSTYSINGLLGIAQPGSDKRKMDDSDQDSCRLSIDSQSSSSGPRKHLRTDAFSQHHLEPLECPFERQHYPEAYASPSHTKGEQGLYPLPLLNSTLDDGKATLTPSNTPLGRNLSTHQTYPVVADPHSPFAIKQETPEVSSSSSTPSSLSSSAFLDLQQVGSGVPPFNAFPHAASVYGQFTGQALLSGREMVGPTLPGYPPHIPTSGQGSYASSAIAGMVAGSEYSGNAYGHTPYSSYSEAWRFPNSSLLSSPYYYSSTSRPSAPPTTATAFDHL

[6] = OVCAR-3 cell viability loss – plate reader, dry powder samples, PAX8 inhibitor project, dose response (AID 743044); assay type: functional, cell-based
[7] = general mammalian cell viability loss – activator set, cherry-pick, cytotoxicity control for miR-122 modulator project, dose response (AID 720690); assay type: functional, cell-based;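 note: HEK293T human cells scored for general mammalian cytotoxicity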
[8] = OVCAR8 cell viability loss – plate reader, dry powder samples, PAX8 project, dose response (AID 743197); assay type: functional, cell-based; details: OVCAR-8
Beta-galactosidase = Beta-galactosidase (Escherichia coli, UniProt Q8VNN2); test: Dose response counterscreen for EBI2 assay utilizing the enzyme, b-galactosidase.; assay type: functional
Sequence of Beta-galactosidase (Q8VNN2 whole entry): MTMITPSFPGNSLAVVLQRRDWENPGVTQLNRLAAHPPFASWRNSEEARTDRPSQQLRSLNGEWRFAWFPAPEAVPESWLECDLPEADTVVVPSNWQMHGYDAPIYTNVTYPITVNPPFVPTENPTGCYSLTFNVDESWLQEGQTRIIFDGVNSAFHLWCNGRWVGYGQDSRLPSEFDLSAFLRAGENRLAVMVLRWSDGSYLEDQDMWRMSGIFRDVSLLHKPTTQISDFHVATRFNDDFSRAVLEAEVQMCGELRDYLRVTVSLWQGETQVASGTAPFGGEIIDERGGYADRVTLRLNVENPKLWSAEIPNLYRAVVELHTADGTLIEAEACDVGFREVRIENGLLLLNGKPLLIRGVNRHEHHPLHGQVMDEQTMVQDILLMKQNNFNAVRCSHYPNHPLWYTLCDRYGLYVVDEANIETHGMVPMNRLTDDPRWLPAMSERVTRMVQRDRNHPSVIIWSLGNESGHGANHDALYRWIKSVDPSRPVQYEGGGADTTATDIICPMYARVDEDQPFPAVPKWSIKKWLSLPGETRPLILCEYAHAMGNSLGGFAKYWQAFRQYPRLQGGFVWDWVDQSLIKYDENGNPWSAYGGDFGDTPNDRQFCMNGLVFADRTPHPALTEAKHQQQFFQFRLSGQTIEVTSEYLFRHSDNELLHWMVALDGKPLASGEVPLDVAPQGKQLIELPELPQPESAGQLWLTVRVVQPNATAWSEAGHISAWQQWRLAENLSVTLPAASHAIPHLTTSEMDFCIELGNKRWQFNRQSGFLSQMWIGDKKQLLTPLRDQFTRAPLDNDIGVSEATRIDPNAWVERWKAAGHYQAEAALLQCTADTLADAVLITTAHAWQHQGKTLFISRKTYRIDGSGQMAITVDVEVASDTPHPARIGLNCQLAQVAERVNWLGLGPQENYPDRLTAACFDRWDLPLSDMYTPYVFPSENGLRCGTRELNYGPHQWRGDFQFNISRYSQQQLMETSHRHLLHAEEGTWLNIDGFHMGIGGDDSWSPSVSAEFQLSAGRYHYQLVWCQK

[9] = A2780 cell killing – plate reader, dry powder samples, cytotoxicity control, dose response (AID 743046); assay type: functional, cell-based
[10] = IGROV1 cell killing – plate reader, dry powder samples, PAX8 inhibitor project, dose response (AID 743043); assay type: functional, cell-based; details: IGROV-1
[11] = biological target: T2, RNA-binding protein pos-1 (Caenorhabditis elegans, UniProt G5EF15); test: disruptors of C. elegans POS-1 RNA interaction – biochemical, fluorescence polarization, dose response (AID 1964);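 note: purified POS-1 fused to maltose binding protein made in E. coli; potency of compounds blocking POS-1 binding to fluorescent RNA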
T2 sequence (G5EF15 whole entry): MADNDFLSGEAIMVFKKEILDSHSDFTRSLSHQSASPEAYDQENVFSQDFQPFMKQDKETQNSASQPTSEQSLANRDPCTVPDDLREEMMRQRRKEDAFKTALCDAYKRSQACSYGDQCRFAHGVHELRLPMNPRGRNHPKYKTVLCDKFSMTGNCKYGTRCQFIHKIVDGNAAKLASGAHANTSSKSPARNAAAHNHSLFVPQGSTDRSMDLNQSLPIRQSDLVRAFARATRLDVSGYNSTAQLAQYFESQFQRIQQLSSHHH

[12] = biological target: T3, Zinc finger protein mex-5 (Caenorhabditis elegans, UniProt Q9XUB2); test: potency of MEX-5 RNA-binding blockers – biochemical, C. elegans, fluorescence polarization, dose response (AID 1960)
T3 sequence (Q9XUB2 whole entry): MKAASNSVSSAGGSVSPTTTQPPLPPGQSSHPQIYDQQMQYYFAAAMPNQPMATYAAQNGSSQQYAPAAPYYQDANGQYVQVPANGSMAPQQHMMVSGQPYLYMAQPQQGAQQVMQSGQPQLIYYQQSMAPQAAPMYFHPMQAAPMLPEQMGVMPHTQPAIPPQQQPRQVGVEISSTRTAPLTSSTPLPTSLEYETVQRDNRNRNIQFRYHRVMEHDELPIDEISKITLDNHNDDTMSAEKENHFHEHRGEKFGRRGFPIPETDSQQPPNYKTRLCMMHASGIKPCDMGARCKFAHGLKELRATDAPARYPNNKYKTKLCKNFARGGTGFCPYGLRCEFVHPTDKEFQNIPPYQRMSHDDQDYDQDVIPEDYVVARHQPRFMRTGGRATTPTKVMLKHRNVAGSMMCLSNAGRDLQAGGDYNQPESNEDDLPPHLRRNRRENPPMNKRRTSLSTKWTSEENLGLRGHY

[13] = biological target: T4, Long-chain-fatty-acid--AMP ligase FadD28 (Mycobacterium tuberculosis, UniProt P9WQ59); test: Fluorescence polarization aasay to screen for inhibitors that compete for the binding of FadD28 to a bisubstrate Measured in Biochemical System Using Plate Reader - 2147-01_Inhibitor_Dose_CherryPick_Activity.; assay type: functional, Mycobacterium tuberculosis H37Rv
T4 sequence (P9WQ59 whole entry): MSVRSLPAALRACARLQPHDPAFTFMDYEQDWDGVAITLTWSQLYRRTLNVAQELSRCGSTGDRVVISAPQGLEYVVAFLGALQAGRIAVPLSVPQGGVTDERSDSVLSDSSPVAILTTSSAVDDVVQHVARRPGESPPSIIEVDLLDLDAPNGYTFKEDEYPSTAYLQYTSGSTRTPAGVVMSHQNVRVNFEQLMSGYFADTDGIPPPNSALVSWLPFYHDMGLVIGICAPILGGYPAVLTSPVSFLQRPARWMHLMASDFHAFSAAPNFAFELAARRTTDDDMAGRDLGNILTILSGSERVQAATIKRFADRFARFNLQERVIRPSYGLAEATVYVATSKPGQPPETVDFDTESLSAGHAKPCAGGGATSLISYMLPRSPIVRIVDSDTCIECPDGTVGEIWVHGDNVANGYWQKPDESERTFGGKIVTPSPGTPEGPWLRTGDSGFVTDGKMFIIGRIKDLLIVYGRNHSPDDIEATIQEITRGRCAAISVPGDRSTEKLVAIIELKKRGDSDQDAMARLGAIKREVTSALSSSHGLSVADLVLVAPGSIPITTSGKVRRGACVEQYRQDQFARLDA

Protein Tat = biological target: T5, Protein Tat (Human immunodeficiency virus type 1 group M subtype B (isolate HXB2)(HIV-1), UniProt P04608); assay type: functional;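 note: tat binding to TAR RNA read out by fluorescence polarization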
T5 sequence (P04608 whole entry): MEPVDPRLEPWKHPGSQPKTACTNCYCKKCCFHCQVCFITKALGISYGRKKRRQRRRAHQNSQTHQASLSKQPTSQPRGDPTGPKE

[14] = general mammalian cell viability loss – inhibitor set, cherry-pick, set 2, cytotoxicity control for miR-122 modulator project, dose response (AID 720697); assay type: functional, cell-based
[15] = general cell-killing toxicity readout – plate reader, dry powder samples, cytotoxicity control for PAX8 inhibitor project, dose response (AID 743021); assay type: functional, cell-based

**Q.** For `OCCNc1nc(Nc2ccc(Cl)c(Cl)c2)nc2ccccc12`, which EC50 [1] is on record?
**A.** 0.464 µM (active)

**Q.** And the EC50 [2]?
**A.** > 30 µM (not active)

**Q.** What about the AC50 [3] of the same compound?
**A.** 2.43 µM (active)

**Q.** What about the IC50 [4] of the same compound?
**A.** > 20 µM (inactive)

**Q.** And the AC50 (INS1)?
**A.** 13.4 µM (active)

**Q.** What about the IC50 [5] of the same compound?
**A.** 55.3 µM (inactive)

**Q.** For `C[C@@H]1CN([C@@H](C)CO)S(=O)(=O)c2ccc(C#Cc3ccccc3F)cc2O[C@@H]1CN(C)C(=O)c1ccc2c(c1)OCO2`, which AC50 (Paired box protein Pax-8) is on record?
**A.** 13.2 µM (active)

**Q.** What about the AC50 [6] of the same compound?
**A.** 20.5 µM (active)

**Q.** And the AC50 [7]?
**A.** 26.9 µM (active)

**Q.** And the AC50 [8]?
**A.** > 70 µM (inactive)

**Q.** For `COc1ccc(N2CCN(C(=O)c3cc4c(s3)-c3ccccc3OC4)CC2)cc1`, which IC50 (Beta-galactosidase) is on record?
**A.** > 80 µM (inactive)

**Q.** With `COc1ccc([N+](=O)[O-])cc1NC(=O)c1ccc(-n2nc(C)cc2C)cc1` as the compound, how does the IC50 [5] read?
**A.** 28 µM (inactive)

**Q.** Which AC50 (Paired box protein Pax-8) does the source give for `C[C@@H]1CCCCO[C@H](CN(C)Cc2ccc(C(F)(F)F)cc2)[C@H](C)CN([C@@H](C)CO)C(=O)c2cc(NC(=O)Nc3ccc4c(c3)OCO4)ccc2O1` here?
**A.** 3.34 µM (active)

**Q.** And the AC50 [9]?
**A.** 42.2 µM (active)

**Q.** What about the AC50 [6] of the same compound?
**A.** 48.7 µM (active)

**Q.** What about the AC50 [10] of the same compound?
**A.** 40.9 µM (active)

**Q.** And the AC50 [8]?
**A.** 36.8 µM (active)

**Q.** With `CN1CCN(C(=O)/C=C/c2ccc(Cl)cc2)CC1` as the compound, how does the IC50 (Beta-galactosidase) read?
**A.** > 80 µM (inactive)

**Q.** Which results are given for `Cc1ccc(NC(=O)CN2C(=O)S/C(=C\c3cc(C)n(-c4cccc(C(=O)O)c4)c3C)C2=O)cc1`?
**A.** EC50 [11]: > 300 µM (not active); EC50 [12]: > 300 µM (not active); AC50 [13]: 2.03 µM (active)

**Q.** For `Cc1cc(O)cc(O)c1C(=O)Cc1cnn(-c2ccccc2)c1`, which IC50 (Protein Tat) is on record?
**A.** > 100 µM (inconclusive)

**Q.** For `CO[C@@H]1CN(C)C(=O)c2ccc(NC(C)=O)cc2OC[C@@H](C)N(C(=O)c2ccccc2F)C[C@H]1C`, which AC50 [14] is on record?
**A.** 0.147 µM (active)

**Q.** Which IC50 (Protein Tat) does the source give for `COc1ccc(C(=O)N/N=C/c2cccnc2)cc1` here?
**A.** > 100 µM (active)

**Q.** Which results are given for `O=C(Cc1cccnc1)N1CCCCN2[C@H](C1)[C@H](c1ccc(/C=C/c3ccccc3)cc1)[C@@H]2CO`?
**A.** AC50 (Paired box protein Pax-8): 4.42 µM (active); AC50 [9]: 25.1 µM (active); AC50 [6]: 5.01 µM (active); AC50 [15]: 50.6 µM (active); AC50 [8]: 41.2 µM (active)
